# Test results: the supplement of paper PMC10307832
# What was measured:
# Assay in all cases: relative viability (nuclei count vs DMSO), 5 days (fraction); higher = more cells survive
# [1] = tested on: HARA
# Outline: (§1)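 Relative viability was taken as the ratio of nuclei in treated wells to nuclei in vehicle wells. Lung cancer cell lines in 1536-well plates received compounds by pin tool one day after seeding, either one drug alone or a fixed anchor-drug dose plus five library-drug doses (not always all listed) in √10 steps. Nuclei were counted on 4× images after 5 days of treatment, and values are medians of duplicate plates.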
# [2] = tested on: HCC-15
# Outline: as §1
# [3] = tested on: NCI-H1623
# Outline: as §1
# [4] = tested on: NCI-H1648
# Outline: as §1
# [5] = tested on: NCI-H1793
# Outline: as §1
# [6] = tested on: NCI-H1915
# Outline: as §1
# [7] = tested on: NCI-H1975
# Outline: as §1
# [8] = tested on: NCI-H650
# Outline: as §1
# [9] = tested on: SK-LU-1
# Outline: as §1
# [10] = tested on: A549
# Outline: as §1
smiles,measurement,setting,value
COCC1(CO)C(=O)C2CCN1CC2 (stereo not drawn) [PRIMA-1MET] + Cc1cc(Nc2cc(N3CCN(C)CC3)nc(Sc3ccc(NC(=O)C4CC4)cc3)n2)n[nH]1 [Tozasertib] (partner 0.1 µM),relative viability,[1]; first compound 0.2 µM,0.119
same,relative viability,[1]; first compound 0.6325 µM,0.0972
same,relative viability,[1]; first compound 6.325 µM,0.112
same,relative viability,[1]; first compound 20 µM,0.118
same,relative viability,[2]; first compound 0.2 µM,0.431
same,relative viability,[2]; first compound 0.6325 µM,0.363
same,relative viability,[2]; first compound 2 µM,0.356
same,relative viability,[2]; first compound 6.325 µM,0.422
same,relative viability,[2]; first compound 20 µM,0.151
same,relative viability,[3]; first compound 0.2 µM,0.474
same,relative viability,[3]; first compound 0.6325 µM,0.449
same,relative viability,[3]; first compound 2 µM,0.445
same,relative viability,[3]; first compound 6.325 µM,0.452
same,relative viability,[3]; first compound 20 µM,0.367
same,relative viability,[4]; first compound 0.2 µM,0.415
same,relative viability,[4]; first compound 0.6325 µM,0.361
same,relative viability,[4]; first compound 2 µM,0.391
same,relative viability,[4]; first compound 6.325 µM,0.574
same,relative viability,[4]; first compound 20 µM,0.465
same,relative viability,[5]; first compound 0.2 µM,0.44
same,relative viability,[5]; first compound 0.6325 µM,0.316
same,relative viability,[5]; first compound 6.325 µM,0.414
same,relative viability,[5]; first compound 20 µM,0.237
same,relative viability,[6]; first compound 0.2 µM,0.444
same,relative viability,[6]; first compound 0.6325 µM,0.368
same,relative viability,[6]; first compound 6.325 µM,0.389
same,relative viability,[6]; first compound 20 µM,0.364
same,relative viability,[7]; first compound 0.2 µM,1.05
same,relative viability,[7]; first compound 0.6325 µM,0.726
same,relative viability,[7]; first compound 2 µM,0.878
same,relative viability,[7]; first compound 6.325 µM,0.738
same,relative viability,[7]; first compound 20 µM,0.454
same,relative viability,[8]; first compound 0.2 µM,0.91
same,relative viability,[8]; first compound 2 µM,0.639
same,relative viability,[8]; first compound 6.325 µM,0.749
same,relative viability,[8]; first compound 20 µM,0.306
same,relative viability,[9]; first compound 0.2 µM,0.4
same,relative viability,[9]; first compound 0.6325 µM,0.371
same,relative viability,[9]; first compound 2 µM,0.319
same,relative viability,[9]; first compound 6.325 µM,0.344
same,relative viability,[9]; first compound 20 µM,0.24
COCC1(CO)C(=O)C2CCN1CC2 (stereo not drawn) [PRIMA-1MET] + Cc1nc(Nc2ncc(C(=O)Nc3c(C)cccc3Cl)s2)cc(N2CCN(CCO)CC2)n1 [Dasatinib] (partner 0.075 µM),relative viability,[1]; first compound 0.2 µM,0.303
same,relative viability,[1]; first compound 0.6325 µM,0.257
same,relative viability,[1]; first compound 6.325 µM,0.294
same,relative viability,[1]; first compound 20 µM,0.252
same,relative viability,[2]; first compound 0.2 µM,0.732
same,relative viability,[2]; first compound 0.6325 µM,0.628
same,relative viability,[2]; first compound 2 µM,0.639
same,relative viability,[2]; first compound 6.325 µM,0.625
same,relative viability,[2]; first compound 20 µM,0.181
same,relative viability,[3]; first compound 0.2 µM,0.517
same,relative viability,[3]; first compound 0.6325 µM,0.563
same,relative viability,[3]; first compound 2 µM,0.518
same,relative viability,[3]; first compound 6.325 µM,0.577
same,relative viability,[3]; first compound 20 µM,0.519
same,relative viability,[5]; first compound 0.2 µM,0.431
same,relative viability,[5]; first compound 0.6325 µM,0.365
same,relative viability,[5]; first compound 6.325 µM,0.404
same,relative viability,[5]; first compound 20 µM,0.35
same,relative viability,[6]; first compound 0.2 µM,0.328
same,relative viability,[6]; first compound 0.6325 µM,0.284
same,relative viability,[6]; first compound 6.325 µM,0.269
same,relative viability,[6]; first compound 20 µM,0.272
same,relative viability,[7]; first compound 0.2 µM,0.359
same,relative viability,[7]; first compound 0.6325 µM,0.349
same,relative viability,[7]; first compound 2 µM,0.366
same,relative viability,[7]; first compound 6.325 µM,0.375
same,relative viability,[7]; first compound 20 µM,0.19
same,relative viability,[8]; first compound 0.2 µM,0.565
same,relative viability,[8]; first compound 2 µM,0.469
same,relative viability,[8]; first compound 6.325 µM,0.472
same,relative viability,[8]; first compound 20 µM,0.454
same,relative viability,[9]; first compound 0.2 µM,0.192
same,relative viability,[9]; first compound 0.6325 µM,0.177
same,relative viability,[9]; first compound 2 µM,0.186
same,relative viability,[9]; first compound 6.325 µM,0.155
same,relative viability,[9]; first compound 20 µM,0.0741
COCC1(CO)C(=O)C2CCN1CC2 (stereo not drawn) [PRIMA-1MET] + N=C(N)NC(=N)NCCc1ccccc1 [Phenformin] (partner 250 µM),relative viability,[10]; first compound 0.2 µM,0.165
same,relative viability,[10]; first compound 0.6325 µM,0.173
same,relative viability,[10]; first compound 2 µM,0.204
same,relative viability,[10]; first compound 6.325 µM,0.148
same,relative viability,[10]; first compound 20 µM,0.0121
same,relative viability,[1]; first compound 0.2 µM,0.526
same,relative viability,[1]; first compound 0.6325 µM,0.421
same,relative viability,[1]; first compound 6.325 µM,0.538
same,relative viability,[1]; first compound 20 µM,0.409
same,relative viability,[2]; first compound 0.2 µM,0.427
same,relative viability,[2]; first compound 0.6325 µM,0.471
same,relative viability,[2]; first compound 2 µM,0.439
same,relative viability,[2]; first compound 6.325 µM,0.451
same,relative viability,[2]; first compound 20 µM,0.172
same,relative viability,[3]; first compound 0.2 µM,0.522
same,relative viability,[3]; first compound 0.6325 µM,0.603
same,relative viability,[3]; first compound 2 µM,0.544
same,relative viability,[3]; first compound 6.325 µM,0.503
same,relative viability,[3]; first compound 20 µM,0.457
same,relative viability,[5]; first compound 0.2 µM,0.465
same,relative viability,[5]; first compound 0.6325 µM,0.32
same,relative viability,[5]; first compound 6.325 µM,0.444
same,relative viability,[5]; first compound 20 µM,0.326
same,relative viability,[6]; first compound 0.2 µM,0.44
same,relative viability,[6]; first compound 0.6325 µM,0.345
same,relative viability,[6]; first compound 6.325 µM,0.399
same,relative viability,[6]; first compound 20 µM,0.353
same,relative viability,[7]; first compound 0.2 µM,0.41
same,relative viability,[7]; first compound 0.6325 µM,0.4
same,relative viability,[7]; first compound 2 µM,0.381
same,relative viability,[7]; first compound 6.325 µM,0.42
same,relative viability,[7]; first compound 20 µM,0.194
same,relative viability,[8]; first compound 0.2 µM,0.595
same,relative viability,[8]; first compound 2 µM,0.433
same,relative viability,[8]; first compound 6.325 µM,0.482
same,relative viability,[8]; first compound 20 µM,0.438
same,relative viability,[9]; first compound 0.2 µM,0.545
same,relative viability,[9]; first compound 0.6325 µM,0.559
same,relative viability,[9]; first compound 2 µM,0.326
same,relative viability,[9]; first compound 6.325 µM,0.606
same,relative viability,[9]; first compound 20 µM,0.0941
